Measurements as given in patent publication US4001228A, “2-Thiol-4,5-diphenyloxazole S-derivatives” (Serono Laboratories, Inc., priority 1974, dated 1977).
Counter-ions that a name gives are not always drawn. Like-named read-outs stand apart in the source and are kept apart here.

Columns and labels:
[1] = test system: collagen induced platelet aggregation (platelet-rich rabbit plasma); assay: Collagen (40 μg/ml) induced platelet aggregation in vitro on platelet-rich plasma; format: cell-based; conditions: Oryctolagus cuniculus, 10 min
Experimental: (§1) The inhibitory activity on platelet aggregation was determined for the same compounds in vitro on platelet-rich rabbit plasma prepared by collecting the blood in a plastic centrifuge tube containing enough 3.8% sodium citrate to give a concentration of 0.38 g/100 ml when mixed with the blood, and then centrifuging at 100 × g for 20 minutes.
(§2) 1 ml aliquots of the thus prepared plasma were placed in a Platelet Aggregation Meter connected to a potentiometric recorder and tested according to Born, Nature (London), 194, 927 (1962).
(§3) The plasma-test compound mixtures were incubated for 10 min. at 37° C before addition of the aggregating agents, that is, Adenosine Diphosphate (ADP) or collagen.
(§4) The curves were read following the method described by O'Brien et al., Thromb. Diath. Haemorrhag. 16, 751 (1966). Slope and maximum transmission were recorded and expressed as % change with respect to controls. In the case of collagen induced platelet aggregation, the delay time ("reaction time") in seconds from the addition of the aggregating agent to the inflection of the curve was also measured and expressed as % change as above. For comparison purposes, acetylsalicylic acid (ASA) was also tested in the same conditions as the test compounds.
(§5) Negative figures in slope and maximum transmission % changes indicate antiaggregating activity. Positive figures in delay time % changes indicate that the compound is effective in prolonging the reaction time in the collagen induced platelet aggregation test.

[2] = test system: ADP induced platelet aggregation (platelet-rich rabbit plasma); assay: ADP (5 μg/ml) induced platelet aggregation in vitro on platelet-rich plasma; format: cell-based; conditions: Oryctolagus cuniculus, 10 min
Experimental: as §1, §2, §3, §4, §5

[3] = Acute toxicity determined as approximate LD50; format: in vivo; conditions: mouse, in vivo, ip; three groups of three "Swiss" mice
Experimental: (§6) The acute toxicity of some of the compounds of formula (I) was determined as approximate LD50, according to the method described in Acta Pharmacol, et toxicol, 25, 345 (1967), on three groups of three "Swiss" mice.

"Swiss" mice = assay: Acute toxicity determined as approximate LD50; format: in vivo; conditions: i.p.; three groups of three "Swiss" mice
Experimental: as §6

[4] = read-out: Maximum transmission, % change

Structure (SMILES)	inhibition at 1.25 µg/mL [1, 4] [%]	inhibition at 1.25 µg/mL ([1]; read-out: Slope, % change) [%]	inhibition at 100 µg/mL [2, 4] [%]	inhibition at 100 µg/mL ([2]; read-out: Slope, % change) [%]	LD50 [3] [mg/kg]	water solubility (Solubility (qualitative))	Approximate LD50 ("Swiss" mice) [mg/kg]	other results
CC(=O)Oc1ccccc1C(=O)O [ASA, acetylsalicylic acid, reference compound]	15.2	22.1	13.2	17.4	–	–	–	–
O=C(O)CSc1nc(-c2ccccc2)c(-c2ccccc2)o1 [Example 2, S-(4,5-DIPHENYLOXAZOL-2-yl)-MERCAPTOACETIC ACID]	–	–	–	–	~220	–	–	–
O=C(O)CSc1nc(-c2ccccc2)c(-c2ccccc2)o1 [Example 3, 2-DIMETHYLAMINOETHANOL SALT OF S-(4,5-DIPHENYLOXAZOL-2-YL)-MERCAPTOACETIC ACID]	–	–	–	–	–	water-soluble	~220	–
O=C(O)CSc1nc(-c2ccccc2)c(-c2ccccc2)o1 [Example 4, METHYLAMINOETHANOL SALT OF S-(4,5-DIPHENYLOXAZOL-2-YL)-MERCAPTOACETIC ACID]	–	–	–	–	–	–	~220	–
CN(C)CCOC(=O)CSc1nc(-c2ccccc2)c(-c2ccccc2)o1 [Example 5, 2-DIMETHYL[…]-(4,5-DIPHENYLOXAZOL-2-YL)-MERCAPTOACETATE]	67.7	72.5	45.2	47.2	~220	water soluble	–	–
NC(=O)CSc1nc(-c2ccccc2)c(-c2ccccc2)o1 [Example 9, S-(4,5-DIPHENYLOXAZOL-2-YL)-MERCAPTOACETAMIDE]	–	–	–	–	~1200	–	–	inhibition at 1.25 µg/mL ([1]; collagen 40 μg/ml, compound 1.25 μg/ml, 10 min incubation at 37° C, change with respect to controls, negative = antiaggregating, read-out: Maximum transmission, % change): 12.3%; inhibition at 1.25 µg/mL ([1]; collagen 40 μg/ml, compound 1.25 μg/ml, 10 min incubation at 37° C, change with respect to controls, negative = antiaggregating, read-out: Slope, % change): 18.4%; inhibition at 100 µg/mL ([2]; ADP 5 μg/ml, compound 100 μg/ml, 10 min incubation at 37° C, change with respect to controls, negative = antiaggregating, read-out: Maximum transmission, % change): 6.6%; inhibition at 100 µg/mL ([2]; ADP 5 μg/ml, compound 100 μg/ml, 10 min incubation at 37° C, change with respect to controls, negative = antiaggregating, read-out: Slope, % change): 7.1%
